Legend:
[1] = target: T1, CDT-1 (Neurospora crassa, UniProt Q7SCU1); experiment: uptake by yeast expressing CDT-1, residual sugar by HPAEC-PAD; format: cell-based; conditions: 100 µM sugar, 30 min, over empty-vector background
T1 construct: pRS316-CDT1 expressed in Saccharomyces cerevisiae D452-2
T1 sequence (Q7SCU1 1-579): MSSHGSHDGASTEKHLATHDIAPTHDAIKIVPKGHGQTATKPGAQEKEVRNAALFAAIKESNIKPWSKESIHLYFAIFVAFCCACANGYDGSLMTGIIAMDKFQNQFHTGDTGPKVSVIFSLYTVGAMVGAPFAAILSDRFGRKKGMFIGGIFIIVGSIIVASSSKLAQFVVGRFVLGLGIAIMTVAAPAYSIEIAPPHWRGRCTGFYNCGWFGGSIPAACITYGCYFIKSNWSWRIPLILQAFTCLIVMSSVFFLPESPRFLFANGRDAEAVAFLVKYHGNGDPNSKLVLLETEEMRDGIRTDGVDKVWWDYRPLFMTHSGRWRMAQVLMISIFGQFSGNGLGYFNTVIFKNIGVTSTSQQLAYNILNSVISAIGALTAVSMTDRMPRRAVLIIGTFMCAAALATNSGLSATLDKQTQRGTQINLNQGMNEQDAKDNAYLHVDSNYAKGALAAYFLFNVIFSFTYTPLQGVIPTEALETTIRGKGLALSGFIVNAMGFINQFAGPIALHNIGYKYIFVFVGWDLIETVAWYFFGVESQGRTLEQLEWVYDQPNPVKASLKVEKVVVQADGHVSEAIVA

[2] = target: T2, CDT-2 (Neurospora crassa, UniProt Q7SD12); experiment: uptake by yeast expressing CDT-2, residual sugar by HPAEC-PAD; format: cell-based; conditions: 100 µM sugar, 30 min
T2 construct: pRS316-CDT2 expressed in Saccharomyces cerevisiae D452-2
T2 sequence (Q7SD12 1-525): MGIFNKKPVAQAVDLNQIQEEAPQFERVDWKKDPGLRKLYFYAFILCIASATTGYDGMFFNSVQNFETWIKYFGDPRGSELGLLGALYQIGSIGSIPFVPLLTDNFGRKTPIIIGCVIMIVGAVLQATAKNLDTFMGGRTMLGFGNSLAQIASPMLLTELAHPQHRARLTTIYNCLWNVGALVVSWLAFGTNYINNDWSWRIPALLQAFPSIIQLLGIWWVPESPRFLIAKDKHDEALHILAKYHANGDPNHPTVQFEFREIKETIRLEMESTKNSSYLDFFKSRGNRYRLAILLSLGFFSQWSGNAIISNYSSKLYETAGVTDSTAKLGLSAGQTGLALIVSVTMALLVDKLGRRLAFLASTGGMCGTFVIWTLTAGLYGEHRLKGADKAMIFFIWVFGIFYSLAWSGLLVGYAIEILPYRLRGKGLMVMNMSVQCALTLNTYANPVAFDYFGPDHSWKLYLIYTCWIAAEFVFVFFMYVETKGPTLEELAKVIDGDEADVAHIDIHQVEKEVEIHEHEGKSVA

[3] = target: T3, GH2-1 (Neurospora crassa, UniProt Q7SFE1); experiment: 4-nitrophenol release, absorbance at […] nm; format: biochemical; conditions: 50 mM KP buffer pH 5.5, 37 °C, 1 h, 0.1 µg enzyme, 80 µg substrate
T3 construct: gh2-1 cDNA in pGAPZ-B (EcoRI/XbaI), His-tagged, expressed in Pichia pastoris X-33, purified by IMAC from cell lysate; no predicted signal peptide
T3 sequence (Q7SFE1 1-854): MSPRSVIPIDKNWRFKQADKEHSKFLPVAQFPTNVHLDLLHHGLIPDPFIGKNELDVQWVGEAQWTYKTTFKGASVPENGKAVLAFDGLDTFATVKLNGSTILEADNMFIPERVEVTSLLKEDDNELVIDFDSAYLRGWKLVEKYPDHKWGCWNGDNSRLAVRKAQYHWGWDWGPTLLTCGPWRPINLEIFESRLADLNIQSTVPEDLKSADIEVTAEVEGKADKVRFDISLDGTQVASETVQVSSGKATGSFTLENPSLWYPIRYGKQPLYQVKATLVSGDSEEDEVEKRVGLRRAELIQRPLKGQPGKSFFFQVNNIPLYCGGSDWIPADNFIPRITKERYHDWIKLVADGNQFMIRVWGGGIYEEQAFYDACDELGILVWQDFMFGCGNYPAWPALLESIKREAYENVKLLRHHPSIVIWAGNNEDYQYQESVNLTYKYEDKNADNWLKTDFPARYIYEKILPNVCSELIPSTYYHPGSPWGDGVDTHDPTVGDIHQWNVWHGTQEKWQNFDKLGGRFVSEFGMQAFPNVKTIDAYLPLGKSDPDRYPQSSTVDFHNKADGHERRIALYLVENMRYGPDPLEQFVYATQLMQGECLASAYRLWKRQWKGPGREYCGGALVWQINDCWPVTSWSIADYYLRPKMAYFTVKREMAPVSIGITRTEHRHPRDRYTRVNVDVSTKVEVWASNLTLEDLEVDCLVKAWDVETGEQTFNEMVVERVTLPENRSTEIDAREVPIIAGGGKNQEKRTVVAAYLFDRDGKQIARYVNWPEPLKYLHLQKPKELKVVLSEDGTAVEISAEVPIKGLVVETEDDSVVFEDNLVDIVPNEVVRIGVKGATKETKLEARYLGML

Row | % remaining in supernatant ([1]; competes with mannobiose) | % remaining in supernatant ([1]; competes with cellobiose) | Structure (SMILES) | uptake by yeast expressing CDT-2, residual sugar by HPAEC-PAD [2] | 4-nitrophenol release, absorbance at 405 nm [3]
1 | ~ 40% | – | OC[C@H]1O[C@@H](O[C@H]2[C@H](O)[C@@H](O)C(O)O[C@@H]2CO)[C@H](O)[C@@H](O)[C@@H]1O (some centres unmarked) [CB, cellobiose] | not only cellobiose was imported by both S. cerevisiae strains, but also mannobiose | –
2 | – | ~ 18% | OC[C@H]1O[C@@H](O[C@H]2[C@H](O)[C@H](O)C(O)O[C@@H]2CO)[C@@H](O)[C@@H](O)[C@@H]1O (some centres unmarked) [MB, mannobiose] | not only cellobiose was imported by both S. cerevisiae strains, but also mannobiose | –
3 | – | – | O=[N+]([O-])c1ccc(O[C@@H]2O[C@H](CO)[C@@H](O)[C@H](O)[C@@H]2O)cc1 [ρNP-β-Man, 4-nitrophenyl-β-D-mannopyranoside] | – | The purified enzyme showed strong activity on ρNP-β-D-mannopyranoside with high specificity

Reference: PMC6606794, “Crosstalk of Cellulose and Mannan Perception Pathways Leads to Inhibition of Cellulase Production in Several Filamentous Fungi” (mBio, 2019)
